Source: US8822509B2, “Pain-relieving compositions and uses therefor” (priority 2006, dated 2014)
Entries after “also recorded” stand apart in the source; their conditions may differ.

Assays:
[1] = tested on: systolic blood pressure of normotensive non-diabetic Wistar rats; experiment: Systolic blood pressure (tail cuff) in normotensive rats; assay type: in vivo
Protocol: Sedation was induced by the intraperitoneal administration of Zoletil® (tiletamine 15 mg kg^−1 and zolazepam 15 mg kg^−1). Using a tail pulse transducer (MLT1010) and an inflatable tail cuff with a Capto SP844 physiological pressure transducer (MLT844/D), systolic blood pressure was recorded via a PowerLab data acquisition unit (ADInstruments, Sydney, Australia). Tails were warmed with lukewarm water prior to each blood pressure reading to increase peripheral circulation so as to facilitate blood pressure recordings using the tail cuff method.
This study was designed to assess the effects of single s.c. bolus doses of the furoxan NO donor, Compound 1, relative to vehicle (DMSO:water, 90:10) on systolic blood pressure in normotensive, non-diabetic, adult male Wistar rats. Single bolus doses of Compound 1 were administered by s.c. injection into the back of the neck of adult male normotensive, non-diabetic Wistar rats in the dose range, 80 fmol/kg to 80 lμmol/kg. Specifically, the doses of Compound 1 tested were 80 fmol/kg (n=3), 800 pmol/kg (n=8), 8 nmol/kg (n=6), 800 nmol/kg (n=4), 8 μmol/kg (n=4), 80 μmol/kg (n=3).

MOP receptor = target: T1, MOP receptor (Mus musculus, UniProt P42866); experiment: Displacement of specific binding of [3H]-DAMGO from membranes of MOP-transfected HEK293 cells
T1 construct: expressed in transfected cells; host or cells: HEK293 (membranes of MOP-HEK cells)
Protocol: A binding assay was performed to determine whether Compound 1 binds at the MOP receptor.
Stably transfected MOP-HEK cells were plated in a 3×10 cm dish and washed with (3×5 mL) 50 mM Tris-HCl (pH 7.4) when sufficiently confluent. The cells were scraped off the dish in 1.5 mL 50 mM Tris-HCl (pH 7.4) using a transfer pipette and place in 15 mL falcon tubes. The cells were sonicated for a 5 second burst and placed on ice. The protein concentration was estimated. The cells were transferred to a 1.5 mL eppendorf tube and centrifuged at 18,000 rcf for 30 minutes at 4° C. The supernatant was removed and the cells resuspended in 50 mM Tris-HCl (pH 7.4) and 1 mg/mL BSA. An aliquot containing 30-50 μg/200 μL protein was taken and [^3H]DAMGO was added (200 μL in Tris-HCl, pH 7.4) with varying concentrations of unlabelled [D-Ala^2, N-Me-Phe^4, Gly^5-ol]-enkephalin acetate (DAMGO) or Compound 1 (200 μL in Tris-HCl, pH 7.4), total volume 600 μL. The solution was incubated for 1 hour at room temperature with slow rotation.

[2] = tested on: non-diabetic control rats; experiment: Tolerance development (7-day continuous s.c. infusion, 2-day washout) in non-diabetic control rats, von Frey PWT; assay type: in vivo
[3] = target: δ-opioid receptors (DOP receptors) (Mus musculus, UniProt P32300); experiment: Forskolin-stimulated cAMP responses in DOP-transfected HEK293 cells; settings: DOP-transfected HEK293, entire concentration range tested
Protocol: Non-transfected HEK293 cells were used as a control. Transfected HEK293 cells were maintained in Dulbecco's Modified Eagle's Medium (DMEM) supplemented with 10% fetal bovine serum (FBS) and geneticin (1 mg/mL). Non-transfected HEK293 cells were maintained in DMEM supplemented with 10% FBS.
The functional interaction between opioids and opioid-like compounds and specific opioid G-protein-coupled receptors (GPCRs) was assessed by measuring changes in intracellular cAMP levels relative to basal levels. The Alphascreen cAMP functional assay measures agonist and antagonist activity of GPCRs by stimulating cells to either increase or decrease intracellular cAMP levels. The assay was performed using an Alphascreen cAMP kit according to the manufacturer's instructions. […]
Detection of cAMP is based on the competition between intracellular cAMP and biotinylated cAMP linked streptavidin-coated donor beads for anti-cAMP conjugated acceptor beads. When the donor and acceptor beads are in close proximity visible light emitted at 520-620 nm is detected using the Envision multilabel plate reader. […]
The assay performance was optimized by using cells at low passage number and at 70-90% confluence. […] The cell concentration was determined using a haemocytometer. […] Note that the cell number will influence the cAMP levels measured before (basal) and after adenylyl cyclase activation. […]

[4] = drug-naïve non-diabetic rats, first s.c. bolus
[5] = non-diabetic rats, second s.c. bolus after 7-day infusion and 2-day washout
[6] = non-diabetic rats, second s.c. bolus after washout

Chain of δ-opioid receptors (DOP receptors) (P32300 whole entry): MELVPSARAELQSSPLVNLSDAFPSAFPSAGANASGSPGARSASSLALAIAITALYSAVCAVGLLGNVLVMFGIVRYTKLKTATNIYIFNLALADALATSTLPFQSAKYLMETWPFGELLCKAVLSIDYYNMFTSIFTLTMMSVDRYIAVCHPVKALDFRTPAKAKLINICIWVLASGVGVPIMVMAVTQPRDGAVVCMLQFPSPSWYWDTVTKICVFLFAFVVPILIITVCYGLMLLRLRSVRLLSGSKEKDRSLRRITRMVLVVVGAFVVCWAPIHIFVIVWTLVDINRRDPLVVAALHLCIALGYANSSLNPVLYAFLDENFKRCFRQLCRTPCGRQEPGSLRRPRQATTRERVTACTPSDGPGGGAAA
T1 sequence (P42866 whole entry): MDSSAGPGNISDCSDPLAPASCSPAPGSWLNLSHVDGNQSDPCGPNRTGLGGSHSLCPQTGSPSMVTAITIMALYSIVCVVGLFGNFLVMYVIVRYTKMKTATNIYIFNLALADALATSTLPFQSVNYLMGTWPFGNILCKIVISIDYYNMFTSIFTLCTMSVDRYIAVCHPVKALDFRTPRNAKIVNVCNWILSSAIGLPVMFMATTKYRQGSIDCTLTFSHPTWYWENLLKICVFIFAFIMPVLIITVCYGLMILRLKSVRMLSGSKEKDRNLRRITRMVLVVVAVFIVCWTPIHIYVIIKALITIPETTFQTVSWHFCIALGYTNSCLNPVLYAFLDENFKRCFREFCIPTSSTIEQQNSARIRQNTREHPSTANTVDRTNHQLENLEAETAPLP

For `Cc1c(C=O)no[n+]1[O-]` [Compound 1, 4-formyl-3-methyl-1,2,5-oxadiazole-2-oxide], the “effect on systolic blood pressure” value ([1]; 80 μmol/kg s.c., 30 min post-dosing vs pre-dosing baseline) was “decreased significantly; also recorded: significantly reduced systolic blood pressure”, the “mean (±SEM) systolic blood pressure at time of peak effect” value ([1]; 80 μmol/kg s.c., 30 min post-dosing, pre-dose 111.3 (±1.5)) was 79.8 (±0.5) mm Hg and the “mean systolic blood pressure” value ([1]; 80 μmol/kg s.c., 1 h post-dosing) was 112.6±0.4 mm Hg. The “effect on systolic blood pressure” value ([1]; single s.c. bolus 80 fmol/kg to 8 μmol/kg, up to 1 h) was “no significant effects”, the “binding to MOP receptors ([3H]-DAMGO displacement)” value (MOP receptor) was “does not bind significantly” and the “mean duration of action” value [2, 4] was roughly 3 h. The “time of peak antinociception post-dosing” value [2, 4] was 1 h, the “mean (±SEM) peak PWT” value ([2]; drug-naïve non-diabetic rats, Compound 1 8 fmol/kg, morphine 2.8 mmol/kg (so in the source) s.c. bolus) was 15.9 ± 0.3 g and the “tolerance after 7-day continuous s.c. infusion” value ([2]; non-diabetic rats) was “completely tolerant”. The “antinociception after second bolus, naïve vs "tolerant" rats” value ([2]; non-diabetic rats, after 2-day washout) was “did not differ significantly”, the “mean (±SEM) peak PWT” value [2, 5] was 15.6 (±0.7) g and the “mean (±SEM) peak ΔPWT” value [2, 5] was 4.2 (±0.6) g. The “mean duration of action” value [2, 6] was roughly 3 h, the “time of peak antinociception post-dosing” value [2, 6] was 1 h and the “inhibition of forskolin-stimulated cAMP formation” value [3] was “did not appear to inhibit”.
